“Also recorded” adds a separate entry of the source.
Legend:
[1] = test system: Abca1; experiment: qPCR of LXR target gene Abca1 in LLC tumor cells; format: cell-based, murine
From the text: (§1) We have performed a set of experiments to evaluate whether some LXR modulators, particularly PFM009 (13) and PFM018 (25) influence the growth of the murine Lewis lung carcinoma cells (LLC) in vitro and in vivo.

[2] = target: T1, hLXRβ (Homo sapiens, UniProt P55055); experiment: luciferase assay with GAL-4 chimeric hLXRβ receptor in human embryonic kidney 293 cells; format: cell-based; settings: for EC50: GAL4-hLXRβ luciferase, HEK293, dose-response 32-1 μM, mean of three-five independent experiments, read-out: LXRβ EC50 (μM) ± SD; for Emax: HEK293, 24 h, read-out: LXRβ Efficacy (%) ± SD, % of compound effect versus 8 μM of 22R-HC
T1 sequence (P55055 222-460 limits assumed): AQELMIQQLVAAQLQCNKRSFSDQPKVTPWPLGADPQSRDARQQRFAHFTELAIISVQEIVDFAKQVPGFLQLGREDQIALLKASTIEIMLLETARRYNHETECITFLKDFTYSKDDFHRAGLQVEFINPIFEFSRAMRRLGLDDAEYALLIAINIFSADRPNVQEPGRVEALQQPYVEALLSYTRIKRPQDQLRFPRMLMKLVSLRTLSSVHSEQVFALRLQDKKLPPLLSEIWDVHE
Protocol: (§2) All the synthesized compounds were first tested for their ability to activate LXRs by using luciferase assays with GAL-4 chimeric receptors. These were performed by co-transfecting plasmids encoding hLXRα- and β-binding domains fused to GAL-4, with the respective responsive element conjugated with the luciferase reporter gene into the human embryonic kidney 293 cells.
(§3) Cell Culture and Co-transfection Assays. Human embryonic Kidney 293 cells (American Type Culture Collection) were cultured in Dulbecco's Modified Eagle's medium containing 10% of fetal bovine serum at 37° C. in humidified atmosphere of 5% CO2. HEK293 cells (4×10^4 cells per well) were transiently transfected in 48 well plate with the reporter plasmids pMH100X4-TK-luc (100 ng/well), Renilla (22 ng/well) together with 100 ng/well of pCMX-Gal4-RXR, pCMX-Gal4-PPAR-γ, pCMX-Gal4-PXR, pFA-CMV-FXR pCMX-Gal4-LXR-α or pCMX-Gal4-LXR-β plasmids using X-tremeGENE 9 DNA Transfection Reagent (Roche). Six hours after transfection, the cells were treated with the appropriate compound for 24 hours. Luciferase activities were analyzed by luciferase Dual Reporter Assay Systems (Promega) according to the manufacturer's protocol. GAL4-LXRs, GAL4-PPAR-γ, GAL4-RXR and TK-MHC100-luc plasmids were described in Villablanca et al.49 GAL4-PXR was a kind gift of Dr. Enrique Sainz (The Scripps Research Institute, La Jolla, USA). GAL4-FXR was a kind gift of Dr. Daniel Merk (Goethe-University Frankfurt am Main). The results obtained by luciferase assays and reported in Table 1 are from three to five independent experiments.
(§4) Statistical analysis. Data are expressed as mean±SEM and were analyzed for significance by ANOVA with Dunnet's multiple comparison tests. The analysis was performed with Prism software. Data in Table 1 are expressed as EC50±SD. In particular, the standard deviations were obtained by calculating the mean of the EC50 of each experiment (three to five independent experiments). The efficacy (%) of the compounds was calculated as the percentage of the compound effect, in terms of LXRα or β activation, versus 8 μM of 22R—HC±SD. The analyses were performed with Prism software.

[3] = test system: TNFα; experiment: qPCR of TNFα expression in differentiated U937 cells treated with LPS; format: cell-based, human; settings: differentiated U937, 6 hours, 10 μM in combination with LPS (100 ng/ml)
Protocol: U937 cells differentiated with PMA for 72 hours were treated with LPS (100 ng/ml) in combination with T0901317 (10 μM) or with the title compounds (10 μM). […] (n=3/group). *p<0.05, **p<0.01, ***p<0.001.
(§5) Quantitative Real-Time-PCR. U937 cell line was differentiated in foam macrophages with phorbol 12-myristate 13-acetate (PMA) 10 ng/ml (Sigma) for 72 hours at 37° C. in […] at the concentration of 3×10^6 cells in 10 ml RPMI 10% FBS. At day 3 nuclear receptor ligands were added for 6 hours. HepG2 cells were treated with the ligands as described by Quinet et al.22 Total RNA was purified by TRIZOL (Invitrogen, Carlsbad, Calif., USA). Reverse transcription was performed incubating 2 μg of total RNA 1 hour at 42° C. with MLV-reverse transcriptase (Promega). Quantitative PCR was performed using Sybr Green Master Mix (Applied Biosystems) and real-time PCR (Viia 7 Real Time PCR System, Applied Biosystems). All PCR reactions were done in triplicate. The comparative Ct method was used to quantify transcripts that were normalized for human GAPDH. the following primer pairs were used: […]

[4] = test system: SREBP1c; experiment: qPCR of SREBP1c expression in HepG2 cells; format: cell-based, human; settings: 10 μM
Protocol: HepG2 cells were treated with T0901317 (10 μM), 22R—HC (3) (10 μM) or with the tested compound (10 μM). […] (n=3/group). *p<0.05, **p<0.01, ***p<0.001.
LXR agonists induce the expression of target genes, which are involved in cholesterol homeostasis, particularly in the reverse cholesterol transport pathway.43 Indeed, LXR agonists induce the expression of ABCA1 both in macrophages and in many tissues of the periphery such as the intestine.44 Moreover, ABCA1 regulates cholesterol efflux to APOAI acceptors.45 In the liver, LXR activation promotes the biosynthesis of fatty acids, a process also termed as de novo lipogenesis by inducing the expression of the master regulator of hepatic lipogenesis sterol-regulatory element-binding protein 1C (SREBP-1c), as well as several downstream genes in the SREBP-1c pathway, including steroyl CoA desaturase 1 (SCD1) and fatty acid synthase (FASN).43 Therefore, it was investigated, by quantitative PCR (qPCR), the expression of ABCA1, SREBP1c, FASN, and SCD1, by using RNA from monocytic U937 cells (FIG. 3) and from hepatic HepG2 cells (FIG. 4) stimulated with our compounds, the non-steroidal agonist T0901317 or the endogenous ligand 22R—HC (3) as positive controls. […] 43,22 was evaluated. […]
Quantitative Real-Time-PCR. […] The comparative Ct method was used to quantify transcripts that were normalized for human GAPDH. the following primer pairs were used: […]

[5] = test system: SREBP1c; experiment: qPCR of SREBP1c expression in PMA-differentiated U937 cells; format: cell-based, human; settings: U937 differentiated with PMA 72 h; 10 μM, 6 hours
Protocol: (§6) U937 cells differentiated with PMA for 72 hours were treated with T0901317 (10 μM), 22R—HC (3) or with the tested compound (10 μM). […] (n=3/group). *p<0.05, **p<0.01, ***p<0.001.
(§7) LXR agonists induce the expression of target genes, which are involved in cholesterol homeostasis, particularly in the reverse cholesterol transport pathway.43 Indeed, LXR agonists induce the expression of ABCA1 both in macrophages and in many tissues of the periphery such as the intestine.44 Moreover, ABCA1 regulates cholesterol efflux to APOAI acceptors.45 In the liver, LXR activation promotes the biosynthesis of fatty acids, a process also termed as de novo lipogenesis by inducing the expression of the master regulator of hepatic lipogenesis sterol-regulatory element-binding protein 1C (SREBP-1c), as well as several downstream genes in the SREBP-1c pathway, including steroyl CoA desaturase 1 (SCD1) and fatty acid synthase (FASN).43 Therefore, it was investigated, by quantitative PCR (qPCR), the expression of ABCA1, SREBP1c, FASN, and SCD1, by using RNA from monocytic U937 cells (FIG. 3) and from hepatic HepG2 cells (FIG. 4) stimulated with our compounds, the non-steroidal agonist T0901317 or the endogenous ligand 22R—HC (3) as positive controls. […] Then, the induction of genes involved in the lipogenesis using the hepatic cell line HepG2. 43,22 was evaluated. […] Over the time, indeed, substantial efforts have been dedicated to the identification of LXR ligands able to turning on ABC transporter genes, without affecting lipogenic genes levels. This task is still one of the major challenge to the discovery of a clinically useful LXR modulator for atherosclerosis.
as §5

[6] = test system: ABCA1; experiment: qPCR of ABCA1 expression in PMA-differentiated U937 cells; format: cell-based, human; settings: U937 differentiated with PMA 72 h; 10 μM, 6 hours
Protocol: as §6, §7, §5

[7] = target: T2, hLXRα (Homo sapiens, UniProt Q13133); experiment: luciferase assay with GAL-4 chimeric hLXRα receptor in human embryonic kidney 293 cells; format: cell-based; settings: for EC50: GAL4-hLXRα luciferase, HEK293, dose-response 32-1 μM, mean of three-five independent experiments, read-out: LXRα EC50 (μM) ± SD; for Emax: HEK293, 24 h, read-out: LXRα Efficacy (%) ± SD; for LXR isoform selectivity profile: LXRα versus LXRβ, GAL4 luciferase assays
T2 sequence (Q13133 209-447 limits assumed): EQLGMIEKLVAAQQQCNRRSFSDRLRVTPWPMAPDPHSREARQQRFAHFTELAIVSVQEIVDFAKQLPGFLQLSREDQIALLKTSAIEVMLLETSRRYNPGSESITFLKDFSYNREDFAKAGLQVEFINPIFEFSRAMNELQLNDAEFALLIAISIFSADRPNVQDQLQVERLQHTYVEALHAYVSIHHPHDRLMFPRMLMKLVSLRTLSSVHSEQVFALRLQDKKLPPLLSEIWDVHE
Protocol: as §2, §3, §4

[8] = test system: LLC tumor; experiment: LLC tumor growth in vivo in C57BL/6 mice; settings: 1×10^6 LLC cells subcutaneously, 30 mg/Kg/day for five consecutive days from day six
Protocol: Then, we tested whether these compounds could influence LLC tumor growth in vivo. To do that, C57BL/6 mice were challenged with 1×10^6 LLC tumor cells subcutaneously. Six days later, tumor-bearing mice were treated with PFM009 or PFM018 (30 mg/Kg/day) for five consecutive days and then evaluated for tumor growth.

[9] = test system: murine Lewis lung carcinoma cells (LLC); experiment: growth of LLC tumor cells in vitro; format: cell-based; settings: 96 hours, 10 μM
From the text: as §1

[10] = test system: SCD1; experiment: qPCR of SCD1 expression in PMA-differentiated U937 cells; format: cell-based, human; settings: U937 differentiated with PMA 72 h; 10 μM, 6 hours
Protocol: as §6, §7, §5

[11] = test system: hFXR; experiment: luciferase assay GAL4-hFXR in human embryonic kidney 293 cells; format: cell-based; settings: compounds at 10 μM
Protocol: Human embryonic kidney 293 cells were co-transfected with GAL4-hRXR (A), GAL4-hPPARγ (B), GAL4-hPXR (C) and GAL4-hFXR (D) expression plasmids together with GAL4 responsive element pMHC100X4-TK-luc and Renilla plasmids. Cells were incubated with vehicle (DMSO), PFMs at the concentration of 10 μM, and the nuclear receptor specific ligands 9cis retinoic acid (100 nM) (A), Rosiglitazone (RSG 100 nM) (B), T0901317 (100 nM) (C) and GW4064 (100 nM) (D) for six hours. The values represent mean±S.D. RLA, relative luciferase activity.
The selectivity of our compounds within the nuclear receptor superfamily was also evaluated by luciferase assays using GAL4-RXR, -PPARγ, -PXR and -FXR plasmids.
Cell Culture and Co-transfection Assays. Human embryonic Kidney 293 cells (American Type Culture Collection) were cultured in Dulbecco's Modified Eagle's medium containing 10% of fetal bovine serum at 37° C. in humidified atmosphere of 5% CO2. […] Luciferase activities were analyzed by luciferase Dual Reporter Assay Systems (Promega) according to the manufacturer's protocol. […]

SMILES: CC[C@@H](C(C)C)[C@H]1O[C@@H]1[C@@H](C)[C@H]1CC[C@H]2[C@@H]3CC=C4C[C@@H](O)CC[C@]4(C)[C@H]3CC[C@]12C [Compound 13, (22R,23R)-22,23-Epoxystigmast-5-ene-3β-ol]
- expression of the LXR target gene Abca1 [1]: induced the expression of the LXR target gene Abca1
- EC50 [2]: 3.79 ± 0.82 µM
- Emax [2]: 142 ± 16.8%
- inhibition of TNFα expression [3]: the most active
- SREBP-1c up-regulation [4]: significant up-regulation of SREBP-1c
- SREBP-1c up-regulation [5]: poor activators of SREBP1c and SCD1
- ABCA1 expression [6]: strong induction of ABCA1 expression
- EC50 [7]: 2.09 ± 0.57 µM
- Emax [7]: 489 ± 89.1%
- LXR isoform selectivity profile [7]: non-selective and poorly preferential LXRα agonists; also recorded: non-selective ligands; also recorded: non-selective LXR agonists
- LLC tumor growth in vivo [8]: significant control of LLC tumor growth
- LLC tumor growth in vitro [9]: not able to alter LLC tumor growth in vitro
- SCD1 expression [10]: poor activators of SREBP1c and SCD1

SMILES: CC[C@H](C[C@@H](O)[C@@H](C)[C@H]1CC[C@H]2[C@@H]3CC=C4C[C@@H](O)CC[C@]4(C)[C@H]3CC[C@]12C)C(C)C [Compound 20, (22R)-3β-stigmast-5-ene-3,22-diol]
- FXR activation [11]: strong FXR activation
- SREBP-1c up-regulation [5]: poor activators of SREBP1c and SCD1
- ABCA1 expression [6]: strong induction of ABCA1 expression
- SCD1 expression [10]: poor activators of SREBP1c and SCD1

SMILES: CC[C@H](C(=O)C[C@@H](C)[C@H]1CC[C@H]2[C@@H]3CC=C4C[C@@H](O)CC[C@]4(C)[C@H]3CC[C@]12C)C(C)C [Compound 25, 3β-Hydroxystigmast-5-ene-23-one]
- expression of the LXR target gene Abca1 [1]: induced the expression of the LXR target gene Abca1
- EC50 [2]: 6.02 ± 1.2 µM
- Emax [2]: ~50%
- beta/alfa efficacy ratio ([2]; LXRβ efficacy over LXRα efficacy): 3.7
- inhibition of TNFα expression [3]: the most active
- SREBP-1c up-regulation [5]: poor activators of SREBP1c and SCD1
- ABCA1 expression [6]: strong induction of ABCA1 expression
- LXRα Efficacy (%) ± SD ([7]; % of compound effect versus 8 μM of 22R-HC): lowest efficacy at LXRα
- EC50 [7]: 14.5 µM
- Emax [7]: 12.4 ± 4.2%
- LXR isoform selectivity profile [7]: good selectivity for the LXRβ isoform in terms of EC50; also recorded: LXRβ-selective agonist; also recorded: selective LXRβ agonist
- LLC tumor growth in vivo [8]: significant control of LLC tumor growth
- LLC tumor growth in vitro [9]: not able to alter LLC tumor growth in vitro
- SCD1 expression [10]: poor activators of SREBP1c and SCD1
